Key:
pDAB1 (Tyr232) [1] = assay: HRECs treated 5 minutes with recombinant mini-RELN, pDAB1 western blot; type: cell-based, human; details: 5 minutes, 4 ug/mL recombinant protein
Procedure: For in vitro screening of constructs using recombinant mini-RELN on HRECs, the cells were cultured in EBM-2 media enriched with EGM-2 Single Quots (Lonza) at 37° C. and 5% CO2 and experimentally tested at passage 7. 24 h prior experiment, cells were plated on a 6-well plate at 500,000 cells/mL. Two hours before the experiment, the cells were washed with PBS to remove residual growth media and then incubated with a starving media including EBM-2, 1% GlutaMax+0.2% Normicin. Treatments was conducted using recombinant mini RELN constructs obtained from Innovagen and Recombinant Mouse Reelin Protein from R&D systems (3820-MR-025/CF). Each treatment was incubated for 5 minutes at 4 ug/mL concentration and cells were subsequently harvested in lysis buffer was applied constituted of RIPA (Cell signaling), proteases inhibitors (cOmplete™, Mini, EDTA-free Protease Inhibitor Cocktail, Roche), phosphatases inhibitors (PhosSTOP, Roche), 1 μL of proteasome inhibitor MG-132 10 mM, 1% Triton X 100. The lysates were scraped and centrifugated at 15000 rpm for 10 minutes at 4° C. Total protein levels were quantified via BCA assay. […] We detected pDAB1 (Tyr232; 1:1000, rabbit, #3325 Cell signaling), and total protein staining (Licor). […] To quantify the results, each band was quantified using ImageJ and data expressed as pDABL:total protein ratio normalized to the control.

pDAB1 (Tyr232) [2] = assay: HRECs treated 5 minutes with HEK 293T-derived mini-RELN media, pDAB1 western blot; type: cell-based, human; details: HEK 293T-derived media 1:1, 1:4, 1:14, 5 minutes
Procedure: The effect of in vitro treatment with RELN or miniRELN protein was also evaluated. HRECs were cultured in EBM-2 media enriched with EGM-2 Single Quots (Lonza) at 37° C. and 5% CO2 and experimentally tested at passage 7. 24 h prior experiment, cells were plated on a 6-well plate at 500,000 cells/mL. Two hours before the experiment, the cells were washed with PBS to remove residual growth media and then incubated with a starving media including EBM-2, 1% GlutaMax+0,2% Normicin. Treatments was conducted using media derived from HEK 293T cells transiently transfected for 24 h with different mini-RELN constructs in the presence of Lipofectamine 2000. […] Total protein levels were quantified via BCA assay. […] We detected pDAB1 (Tyr232; 1:1000, rabbit, #3325 Cell signaling), and Beta actin (1:5000, mouse, #66009-1-Ig, Proteintech. Antibodies were diluted using Intercept® (TBS) Blocking Buffer and incubated overnight at 4C under gentle shaking. Prior secondary antibody incubation, membranes were washes 2 times using TBS-T for 10 minutes. As secondary antibodies we used IR Dye 800n CW Goat-anti-Rabbit (925-32211, Licor) and IR Dye 680 CW Goat-anti-Mouse (925-68070, Licor) both diluted 1:10000 in blocking buffer for 1 h at room temperature under gentle shaking. Membranes were washed three times with TBS-T prior IR detection using Odyssey imager. […]

## IL2signalpeptide-6XHistag(SEQ ID NO: 62)-hReelin(AALeu1220-Ile2660) Cterm-REELINWT [225SV]
pDAB1 (Tyr232) [1]
  pDAB1 levels: increased pDAB1 levels
pDAB1 (Tyr232) [2]
  pDAB1 / Dab1 signaling activation: efficacy

— patent US20260139017A1, “COMPOSITIONS AND METHODS USING REELIN IN ALZHEIMER'S DISEASE” (The General Hospital Corporation, priority 2022, published 2026)
